# According to US20230312605A1, “PYRROLO[2,1-F][1,2,4]TRIAZINES AND PREPARATION AND USES THEREOF” (BioSplice Therapeutics, Inc., priority 2021, published 2023):
# Experiments:
# [1] = molecular target: recombinant DYRK1A kinase (Homo sapiens (Human), UniProt Q13627); experiment: DYRK1A kinase assay (Ser/Thr 18 peptide Z-lyte FRET assay); format: biochemical; details: recombinant DYRK1A 0.25 µg/mL, ATP 15 µM, Ser/Thr peptide 18 4 µM, one hour at room temperature; table head prints EC50, method says IC50
# How it was run: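 Recombinant human DYRK1A (0.25 µg/mL) with 15 µM ATP and 4 µM Ser/Thr 18 peptide was incubated 1 h at room temperature with compound (11-point, 10 µM top), in duplicate. Z-lyte FRET read-out (coumarin/fluorescein emission ratio) was converted to percent phosphorylation; IC50 from non-linear regression.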
# [2] = system: Tau phosphorylation at Thr212 (pThr212) in HEK293T cells transfected with DYRK1A and MAPT; experiment: phosphoTau (Thr212) AlphaLISA tau phosphorylation cell assay; format: cell-based; details: HEK-293T, HEK293T cells transiently transfected with human DYRK1A and MAPT, compound treatment 18-24 hours, read-out: pTau (Thr212) EC50
# Description: Representative compounds were screened using the assay procedure for tau phosphorylation activity described below.
# HEK293T cells (ATCC, CRL3216) cultured in DMEM (Thermo Fisher Scientific, 10566024) supplemented with 10% FBS (Corning, 35-011-CV) and Penicillin/Streptomycin (Thermo Fisher Scientific, 15140163) were seeded in a 75 cm^2 flask at 8.1 × 10^6 cells/flask. The HEK293T cells were then transiently transfected with 5 µg DYRK1A (NM_001396) human untagged clone (OriGene, SC314641) and 2.5 µg MAPT (441 a.a. Tau gene) (NM_005910) human untagged clone (OriGene, TP313312) using Lipofectamine 3000 (Thermo Fisher Scientific, L30000015) and incubated for 20-30 hours in a humidified incubator at 37° C. and 5% CO^2. Post-incubation, HEK293T cells transfected with the DYRK1A and MAPT expression vectors were harvested and seeded in BioCoat poly-D lysine coated 96-well plates (Corning, 354461) at 3 × 10^4 cells/well.
# The above synthesized compounds were screened using the cell assay procedure to assess decreased Tau phosphorylation at Thr212 (pThr212) described below.
# Each compound was dissolved in DMSO (Sigma-Aldrich, D8418-100 mL) as a 10 mM stock. 10 mM stocks were serially diluted 1:3, 10-point dose-response curve and added to the cells with a final concentration ranging from 20 µM to 1.1 nM. Cells were treated with compounds in duplicate and incubated for 18-24 hours in a humidified incubator at 37° C. and 5% CO^2.
# Following the overnight compound treatment, cells were lysed with 1X Alpha Surefire Ultra Lysis Buffer (Perkin Elmer, ALSU-LB-100ML) complemented with 1X Halt Phosphatase Inhibitor Cocktail (Thermo Fisher Scientific, 78427) and 1X Halt Protease Inhibitor Cocktail (Thermo Fisher Scientific, 78438). Lysates were spun down at 12,000 g for 10 min to remove any cellular debris and 5 µL of lysates were dispensed into a 384-well Opti-Plate (Perkin Elmer, 6007290) for the measurement of Tau phosphorylation in the phosphoTau (Thr212) AlphaLISA assay. Donor antibody, biotinylated HT7Tau (Thermo Fisher Scientific, MN1000B), and acceptor antibody, pThr212Tau (Thermo Fisher Scientific, 44740G) were both added to the cell lysates at a final concentration of 3 nM and incubated for 1 hour at room temperature. Following incubation of the lysates with the donor and acceptor antibodies, anti-rabbit IgG(Fc specific) AlphaLISA acceptor beads (Perkin Elmer, AL104C) were added at a 10 ug/mL final concentration and incubated for 1 hour at room temperature protected from light. Lastly, AlphaScreen streptavidin donor beads (PerkinElmer, 6760002) were added at 40 ug/mL final concentration and incubated for 1 hour at room temperature protected from light. Plates were read at Ex= […], and Em=615 nm on the EnVision Multilabel Plate Reader (Perkin Elmer)
# phospho-Tau (Thr212) AlphaLISA signal was used to plot, draw the curve fitting, and determine each compound’s EC50 in Prism (GraphPad).
EC50 [1] [nM],SMILES,EC50 [2] [nM]
7,"CO[C@H]1CC[C@@H](Nc2ncc3c(-c4cnc5nccn5c4)ccn3n2)CC1 [Compound 259, 5-(Imidazo[1,2-a]pyrimidin-6-yl)-N-(cis-4-methoxycyclohexyl)pyrrolo[2,1-f][1,2,4]triazin-2-amine]",150
3,"FC1(F)CC2(CC(Nc3ncc4c(-c5cnc6nccn6c5)ccn4n3)C2)C1 [Compound 281, N-(6,6-Difluorospiro[3.3]heptan-2-yl)-5-(imidazo[1,2-a]pyrimidin-6-yl) pyrrolo[2,1-f] [1,2,4]triazin-2-amine]",70
23,"CC(C)(F)CNc1ncc2c(-c3ccc4nccn4c3)ccn2n1 [Compound 3, N-(2-Fluoro-2-methylpropyl)-5-(imidazo[1,2-a]pyridin-6-yl)pyrrolo[2,1-f] [1,2,4]triazin-2-amine]",1840
25,"c1cn2cc(-c3ccn4nc(NC5COC5)ncc34)ccc2n1 [Compound 65, 5-(Imidazo[1,2-a]pyridin-6-yl)-N-(oxetan-3-yl)pyrrolo[2,1-f][1,2,4]triazin-2-amine]",828
28,"FC1(F)CC(Nc2ncc3c(-c4ccc5nccn5c4)ccn3n2)C1 [Compound 23, N-(3,3-Difluorocyclobutyl)-5-(imidazo[1,2-a]pyridin-6-yl)pyrrolo[2,1-f] [1,2,4]triazin-2-amine]",794
13,"FC1(CNc2ncc3c(-c4cnc5nccn5c4)ccn3n2)COC1 [Compound 228, N-((3 -Fluorooxetan-3-yl)methyl)-5-(imidazo [1,2-a]pyrimidin-6-yl)pyrrolo [2,1-f][1,2,4]triazin-2-amine]",292
12,"CC(C)(F)CNc1ncc2c(-c3cnc4nccn4c3)ccn2n1 [Compound 216, N-(2-Fluoro-2-methylpropyl)-5-(imidazo[1,2-a]pyrimidin-6-yl)pyrrolo[2,1-f] [1,2,4]triazin-2-amine]",455
7,"c1cn2cc(-c3ccn4nc(NC5CC6(COC6)C5)ncc34)cnc2n1 [Compound 282, 5-(Imidazo[1,2-a]pyrimidin-6-yl)-N-(2-oxaspiro[3.3]heptan-6-yl)pyrrolo[2,1-f][1,2,4]triazin-2-amine]",172
11,"CO[C@H]1C[C@@H](Nc2ncc3c(-c4ccc5nccn5c4)ccn3n2)C1 [Compound 26, 5-(Imidazo[1,2-a]pyridin-6-yl)-N-(cis-3-methoxycyclobutyl)pyrrolo[2,1-f] [1,2,4]triazin-2-amine]",238

# The next lines start with the compound.
SMILES,EC50 [1] [nM],EC50 [2] [nM]
"Cc1nc2ccc(-c3ccn4nc(NCC(C)(C)F)ncc34)nc2n1CC(F)F [Compound 1068, N-(2-Fluoro-2-methylpropyl)-5-(3-(2,2-difluoroethyl)-2-methyl-3H-imidazo[4,5-b]pyridin-5-yl)pyrrolo[2,1-f][1,2,4]triazin-2-amine]",4,159
"CO[C@H]1CC[C@@H](Nc2ncc3c(-c4ccc5nc(C)n(CC(F)F)c5n4)ccn3n2)CC1 [Compound 1111, 5-(3-(2,2-Difluoroethyl)-2-methyl-3H-imidazo[4,5-b]pyridin-5-yl)-N-(cis-4-methoxycyclohexyl)pyrrolo[2,1-f][1,2,4]triazin-2-amine]",3,71
"Cc1nc2ncc(-c3ccn4nc(NCC(C)(C)F)ncc34)cc2n1C(C)C [Compound 571, N-(2-Fluoro-2-methylpropyl)-5-(1-isopropyl-2-methyl-1H-imidazo[4,5-b]pyridin-6-yl)pyrrolo[2,1-f] [1,2,4]triazin-2-amine]",11,725
"COCCn1c(C)nc2ccc(-c3ccn4nc(NC5CCC(F)(F)CC5)ncc34)nc21 [Compound 1179, N-(4,4-Difluorocyclohexyl)-5-(3-(2-methoxyethyl)-2-methyl-3H-imidazo [4,5-b]pyridin-5-yl)pyrrolo[2,1-f][1,2,4]triazin-2-amine]",26,470
"C[C@]1(O)CC[C@@H](Nc2ncc3c(-c4ccc5nccnc5c4)ccn3n2)CC1 [Compound 1394, (1s,4s)-1-Methyl-4-((5-(quinoxalin-6-yl)pyrrolo[2,1-f][1,2,4]triazin-2-yl)amino)cyclohexan-1-ol]",14,709
"O[C@H]1C[C@@H](Nc2ncc3c(-c4ccc5nccnc5c4)ccn3n2)C1 [Compound 1724, cis-3-((5-(Quinoxalin-6-yl)pyrrolo [2,1-f] [1,2,4]triazin-2-yl)amino) cyclobutan-1-ol]",11,305
"O[C@H]1CC[C@@H](Nc2ncc3c(-c4ccc5nccnc5c4)ccn3n2)CC1 [Compound 1393, cis-4-((5-(Quinoxalin-6-yl)pyrrolo[2,1-f][1,2,4]triazin-2-yl)amino) cyclohexan-1-ol]",23,718
"Cc1nc2ccc(-c3ccn4nc(NC5CCC(F)(F)CC5)ncc34)nc2n1CCF [Compound 1037, N-(4,4-Difluorocyclohexyl)-5-(3-(2-fluoroethyl)-2-methyl-3H-imidazo[4,5-b]pyridin-5-yl)pyrrolo[2,1-f][1,2,4]triazin-2-amine]",20,403
